Laboratory results from BindingDB's records for doi:10.1016/j.bmcl.2003.08.015 (The University of Birmingham, 2003).

Molecular target: T1, 3-oxoacyl-[acyl-carrier-protein] synthase 3 (Mycobacterium tuberculosis (strain ATCC 25618 / H37Rv), UniProt P9WNG3)
T1 sequence (P9WNG3 whole entry): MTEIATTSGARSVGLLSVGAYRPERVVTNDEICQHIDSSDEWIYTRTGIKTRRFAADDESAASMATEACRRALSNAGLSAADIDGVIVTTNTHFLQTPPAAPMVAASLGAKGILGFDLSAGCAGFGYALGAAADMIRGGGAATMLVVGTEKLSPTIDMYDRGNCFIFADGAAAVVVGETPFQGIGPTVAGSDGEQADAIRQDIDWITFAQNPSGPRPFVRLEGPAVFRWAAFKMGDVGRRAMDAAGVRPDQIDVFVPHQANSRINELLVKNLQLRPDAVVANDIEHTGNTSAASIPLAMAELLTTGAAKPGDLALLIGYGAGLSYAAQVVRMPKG
Assay: ChEBML_37595
From the text: In vitro inhibitory activity against the recombinant Mycobacterium tuberculosis Beta-ketoacyl-ACP synthase III mtFabH condensing enzyme.

Structure (SMILES) | IC50 [µM]
CC1C(=O)SC(C)(Cc2cccc(Oc3ccccc3)c2)C1=O (configuration not stated) [4-Hydroxy-3,5-dimethyl-5-(3-phenoxy-benzyl)-5H-thiophen-2-one] | 52
Cc1ccc(-c2ccc(CC3(C)SC(=O)C(C)C3=O)cc2)cc1 (configuration not stated) [4-Hydroxy-3,5-dimethyl-5-(4'-methyl-biphenyl-4-ylmethyl)-5H-thiophen-2-one] | 52
